Holding throughout (assay type): in vivo
The subject of assay [1] is Echinochloa crus-galli (ECHCG). Briefly: Post-emergence herbicidal activity, ECHCG. To be noted: 1000 g/ha, sprayed post-emergence (8 days cultivation), evaluated after 13 days, damage score 0-5. Set-up: key: 5=total damage to plant; 0=no damage to plant. The protocol: (§1) Seeds of a variety of test species were sown in standard soil in pots: Triticum aestivium (TRZAW), Avena fatua (AVEFA), Alopecurus myosuroides (ALOMY), Echinochloa crus-galli (ECHCG), Lolium perenne (LOLPE), and Setaria faberi (SETFA). After 8 days cultivation (post-emergence) under controlled conditions in a glasshouse (at 24/16° C., day/night; 14 hours light; 65% humidity), the plants were sprayed with an aqueous spray solution derived from the formulation of the technical active ingredient in acetone/water (50:50) solution containing 0.5% Tween 20 (polyoxyethelyene sorbitan monolaurate, CAS RN 9005-64-5). The test plants were then grown in a glasshouse under controlled conditions (at 24/16° C., day/night; 14 hours light; 65% humidity) and watered twice daily. After 13 days, the test was evaluated (5=total damage to plant; 0=no damage to plant).

Assay [2] has as its system Lolium perenne (LOLPE). Kind of assay: Post-emergence herbicidal activity, LOLPE. To be noted: 1000 g/ha, sprayed post-emergence (8 days cultivation), evaluated after 13 days, damage score 0-5. The protocol:
as §1

Assay [3] deals with Setaria faberi (SETFA). Briefly: Post-emergence herbicidal activity, SETFA. To be noted: 1000 g/ha, sprayed post-emergence (8 days cultivation), evaluated after 13 days, damage score 0-5. Set-up: key: 5=total damage to plant; 0=no damage to plant. How it is done: as §1
The subject of assay [4] is Setaria faberi (SETFA). Briefly: Pre-emergence herbicidal activity, SETFA. More on the design: key: 5=total damage to plant; 0=no damage to plant. Particulars: 1000 g/ha, sprayed pre-emergence, evaluated after 13 days, damage score 0-5. How it is done: as §1, with “After” for “After 8 days”, “for one day (pre-emergence)” for “(post-emergence)”
The subject of assay [5] is Lolium perenne (LOLPE). Kind of assay: Pre-emergence herbicidal activity, LOLPE. Set-up: key: 5=total damage to plant; 0=no damage to plant. To be noted: 1000 g/ha, sprayed pre-emergence, evaluated after 13 days, damage score 0-5. The protocol:
as §1, with “After” for “After 8 days”, “for one day (pre-emergence)” for “(post-emergence)”

Assay [6] concerns Alopecurus myosuroides (ALOMY). Briefly: Pre-emergence herbicidal activity, ALOMY. Set-up: key: 5=total damage to plant; 0=no damage to plant. Particulars: 1000 g/ha, sprayed pre-emergence, evaluated after 13 days, damage score 0-5. How it is done: as §1, with “After” for “After 8 days”, “for one day (pre-emergence)” for “(post-emergence)”
Assay [7] concerns Avena fatua (AVEFA). Briefly: Pre-emergence herbicidal activity, AVEFA. More on the design: key: 5=total damage to plant; 0=no damage to plant. Particulars: 1000 g/ha, sprayed pre-emergence, evaluated after 13 days, damage score 0-5. The protocol: as §1, with “After” for “After 8 days”, “for one day (pre-emergence)” for “(post-emergence)”
For assay [8], the system named is Triticum aestivium (TRZAW). Briefly: Post-emergence herbicidal activity, TRZAW. To be noted: 1000 g/ha, sprayed post-emergence (8 days cultivation), evaluated after 13 days, damage score 0-5. How it is done: as §1
For assay [9], the system named is Avena fatua (AVEFA). Kind of assay: Post-emergence herbicidal activity, AVEFA. To be noted: 1000 g/ha, sprayed post-emergence (8 days cultivation), evaluated after 13 days, damage score 0-5. The protocol:
as §1

The test system of assay [10] is Alopecurus myosuroides (ALOMY). Briefly: Post-emergence herbicidal activity, ALOMY. To be noted: 1000 g/ha, sprayed post-emergence (8 days cultivation), evaluated after 13 days, damage score 0-5. Set-up: key: 5=total damage to plant; 0=no damage to plant. The protocol:
as §1

The subject of assay [11] is Echinochloa crus-galli (ECHCG). Kind of assay: Pre-emergence herbicidal activity, ECHCG. Particulars: 1000 g/ha, sprayed pre-emergence, evaluated after 13 days, damage score 0-5. How it is done:
as §1, with “After” for “After 8 days”, “for one day (pre-emergence)” for “(post-emergence)”

The subject of assay [12] is Triticum aestivium (TRZAW). Briefly: Pre-emergence herbicidal activity, TRZAW. Set-up: key: 5=total damage to plant; 0=no damage to plant. To be noted: 1000 g/ha, sprayed pre-emergence, evaluated after 13 days, damage score 0-5. The protocol:
as §1, with “After” for “After 8 days”, “for one day (pre-emergence)” for “(post-emergence)”

The structures appear in SMILES notation.

The record followed here is patent US11678665B2, “Pyrazine-4-carbamate or -urea derivatives as herbicides” (Syngenta Participations AG, priority 2017, dated 2023).

Consider `COCCC(=O)N(C(=O)CCOC)c1ncc(-c2cncc(F)c2)nc1C(F)(F)F` [Compound I11], for which the “Control of weed species after post-emergence application: ECHCG” value in assay [1] stood at 5. For the same molecule, the “Control of weed species after post-emergence application: LOLPE” value in the assay on Lolium perenne (LOLPE) [2] was found to be 1. In addition, the “Control of weed species after post-emergence application: SETFA” value with Setaria faberi (SETFA) [3] was 5. Also, in the assay with Setaria faberi (SETFA) [4], the “Control of weed species after pre-emergence application: SETFA” value was 4. Also, in the assay with Lolium perenne (LOLPE) [5], the “Control of weed species after pre-emergence application: LOLPE” value came to 0. Moreover, the “Control of weed species after pre-emergence application: ALOMY” value in [6] was 0. The “Control of weed species after pre-emergence application: AVEFA” value in the assay on Avena fatua (AVEFA) [7] was determined as 0. Besides, the “Control of weed species after post-emergence application: TRAZW” value in assay [8] is recorded as 1. In addition, the “Control of weed species after post-emergence application: AVEFA” value in the assay on Avena fatua (AVEFA) [9] was 4. In addition, the “Control of weed species after post-emergence application: ALOMY” value in assay [10] is 0. Besides, the “Control of weed species after pre-emergence application: ECHCG” value in assay [11] is recorded as 3. For the same molecule, the “Control of weed species after pre-emergence application: TRAZW” value in assay [12] came to 1.
As to `CC(=O)N(C)c1ncc(-c2cncc(F)c2)nc1C` [Compound I6], in assay [1], the “Control of weed species after post-emergence application: ECHCG” value was found to be 4. Moreover, the “Control of weed species after post-emergence application: LOLPE” value in the assay on Lolium perenne (LOLPE) [2] is 2. Further, the “Control of weed species after post-emergence application: SETFA” value in the assay with Setaria faberi (SETFA) [3] is listed as 5. Further, in the assay with Setaria faberi (SETFA) [4], the “Control of weed species after pre-emergence application: SETFA” value is recorded as 5. Moreover, the “Control of weed species after pre-emergence application: LOLPE” value in the assay with Lolium perenne (LOLPE) [5] came to 0. Also, the “Control of weed species after pre-emergence application: ALOMY” value in [6] amounted to 0. In addition, in the assay with Avena fatua (AVEFA) [7], the “Control of weed species after pre-emergence application: AVEFA” value turned out to be 1. Moreover, the “Control of weed species after post-emergence application: TRAZW” value in assay [8] is given as 1. In addition, in the assay on Avena fatua (AVEFA) [9], the “Control of weed species after post-emergence application: AVEFA” value is listed as 3. Also, in assay [10], the “Control of weed species after post-emergence application: ALOMY” value amounted to 1. The “Control of weed species after pre-emergence application: ECHCG” value in [11] is reported as 3. Further, in assay [12], the “Control of weed species after pre-emergence application: TRAZW” value is 0.
